Experimental data published in the supplement of paper PMC11821682.

What was measured:
HL-60 = experiment: Cell Health Index (toxicity pseudo-probability over dose series) (index 0-1); higher = more cytotoxic / cell stress;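 note: HL-60 cells exposed 4 h at 37 °C to ten threefold dilutions spanning 5 nM to 100 µM, multiparametric flow cytometry features scored by machine-learning classification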
Danio rerio embryo = experiment: BMC10 any morphological effect or mortality at 120 hpf; higher = less toxic
Procedure: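 ZBEscreen: dechorionated Tropical 5D zebrafish embryos were exposed from 4 hpf in 96-well plates (1% DMSO, 28 °C). All compounds were first tested at 100 µM; hits were retested at 0.005-100 µM. Morphology and mortality were scored at 120 hpf and fitted as BMC10 (3-parameter log-logistic, extra risk). The embryonic photomotor response at 24 hpf and the larval photomotor response at 120 hpf are given as lowest effect levels (K-S test, p<0.01). NA = not significant up to 100 µM; NT = not tested.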

Compound	Cell Health Index (HL-60)	BMC10 any morphological effect or mortality (Danio rerio embryo)
Nc1ccn(C[C@@H](CO)OCP(=O)(O)O)c(=O)n1 [Cidofovir]	0.144	> 100 µM
Cc1ccc(S(=O)(=O)OCC(=O)Nc2ccc(C(=O)O)c(O)c2)cc1 [S3I-201]	0.259	> 100 µM
C=C1CC[C@@H]2[C@](C)(CO[C@@H]3O[C@H](CO)[C@@H](O)[C@H](O)[C@H]3O)CCC[C@@]2(C)[C@@H]1CCC1=CCOC1=O [Neoandrographolide]	0.21	> 100 µM
O=C(/C=C/c1ccc(O)c(O)c1)O[C@H]1[C@H](O)C[C@](O)(C(=O)O)C[C@H]1OC(=O)/C=C/c1ccc(O)c(O)c1 [4,5-Dicaffeoylquinic acid]	0.542	> 100 µM
C[C@@H]1CCN(C(=O)CC#N)C[C@@H]1N(C)c1ncnc2[nH]ccc12.O=C(O)CC(O)(CC(=O)O)C(=O)O [Tofacitinib]	0.228	> 100 µM
CC1(C)[C@@H](O[C@H]2O[C@H](C(=O)O)[C@@H](O)[C@H](O)[C@H]2O[C@@H]2O[C@H](C(=O)O)[C@@H](O)[C@H](O)[C@H]2O)CC[C@]2(C)[C@H]3C(=O)C=C4[C@@H]5C[C@@](C)(C(=O)O)CC[C@]5(C)CC[C@@]4(C)[C@]3(C)CC[C@@H]12.N [Glycyrrhizin]	0.295	> 100 µM
O=c1[nH]c(=O)n([C@H]2C[C@H](O)[C@@H](CO)O2)cc1I [Idoxuridine]	0.205	> 100 µM
CCN(CC)Cc1ccc(C(=O)N(CCc2ccccc2OC)[C@@H]2CCNC2)cc1.Cl.Cl	0.318	> 100 µM
C[C@H]1CC[C@@]2(O)C(C)(C)[C@@H]3CC[C@@]2(C)[C@H]1C3 [Patchouli alcohol]	0.202	> 100 µM
CC(=O)SC[C@H](NC(=O)CC[C@H](N)C(=O)O)C(=O)NCC(=O)O [S-acetyl-L-Glutathione]	0.168	> 100 µM
CC(=O)Nc1ccc(C(=O)O)cc1.CC(=O)Nc1ccc(C(=O)O)cc1.CC(=O)Nc1ccc(C(=O)O)cc1.CC(O)CN(C)C.CC(O)CN(C)C.CC(O)CN(C)C.O=c1nc[nH]c2c1ncn2[C@@H]1O[C@H](CO)[C@@H](O)[C@H]1O [Inosine]	0.242	> 100 µM
CCCCCCOC(=O)NC(=N)c1ccc(NCc2nc3cc(C(=O)N(CCC(=O)OCC)c4ccccn4)ccc3n2C)cc1 [Dabigatran etexilate]	0.832	> 100 µM
CC(C)C1=C2[C@H]3CC[C@@H]4[C@@]5(C)CC[C@H](OC(=O)CC(C)(C)C(=O)O)C(C)(C)[C@@H]5CC[C@@]4(C)[C@]3(C)CC[C@@]2([C@@H](O)CN(CCN(C)C)Cc2ccc(Cl)cc2)CC1=O	0.422	> 100 µM
CC(=O)NC1[C@H]([C@H](O)[C@H](O)CO)O[C@@](O[C@H]2[C@@H](O)[C@@H](CO)O[C@@H](O[C@@H]([C@H](O)[C@@H](O)C=O)[C@H](O)CO)[C@@H]2O)(C(=O)[O-])C[C@@H]1O.[Na+] (stereo partly specified) [N-Acetylneuraminoyllactose]	0.235	> 100 µM
C=C1[C@H](CO)[C@@H](O)C[C@@H]1n1cnc2c(=O)nc(N)[nH]c21.O [Entecavir]	0.178	> 100 µM
O=C1NC(=O)C(c2ccccc2)(c2ccccc2)N1 [Phenytoin]	0.193	> 100 µM
Nc1nc(=O)c2c(CCc3ccc(C(=O)N[C@@H](CCC(=O)[O-])C(=O)[O-])cc3)c[nH]c2[nH]1.O.O.O.O.O.O.O.[Na+].[Na+] [Pemetrexed]	0.15	> 100 µM
O=P([O-])(O)C(O)(Cc1cccnc1)P(=O)(O)O.[Na+] [Risedronic acid]	0.203	> 100 µM
Cl.NC12C[C@H]3C[C@@H](C1)C[C@@H](C2)C3 [Amantadine]	0.195	> 100 µM
O=C(O)c1ccc2nc(-c3ccccc3)c(-c3ccccc3)nc2c1 [2,3-diphenylquinoxaline-6-carboxylic acid]	0.217	> 100 µM
COc1c(O)cc2c(c1O)[C@@H]1O[C@H](CO)[C@@H](O)[C@H](O)[C@H]1OC2=O [Bergenin]	0.214	> 100 µM
CCN(CCO)CCCC(C)Nc1ccnc2cc(Cl)ccc12.O=S(=O)(O)O (stereo unspecified) [Hydroxychloroquine]	0.211	> 100 µM
COc1cc(NC(=O)Nc2cccc(CNC(=O)O[C@H]3CCOC3)c2)ccc1-c1cnco1 [Merimepodib]	0.67	> 100 µM
CC(C)c1nc(CN(C)C(=O)N[C@H](C(=O)N[C@@H](Cc2ccccc2)C[C@H](O)[C@H](Cc2ccccc2)NC(=O)OCc2cncs2)C(C)C)cs1 [Ritonavir]	0.532	> 100 µM

Compound	Cell Health Index (HL-60)	BMC10 any morphological effect or mortality (Danio rerio embryo)
COC(=O)C1=CO[C@@H](O[C@@H]2O[C@H](CO)[C@@H](O)[C@H](O)[C@H]2O)[C@@H]2C(CO)=CC[C@H]12 [Geniposide]	0.251	> 100 µM
O=c1cc(-c2ccc(O)c(O)c2)oc2cc(O)cc(O)c12 [Luteolin]	0.54	> 100 µM
Nc1ccn([C@@H]2CS[C@H](CO)O2)c(=O)n1 [Lamivudine]	0.2	> 100 µM
Cc1nc(N(C)C(=O)Cc2ccc(-c3ccccn3)cc2)sc1S(N)(=O)=O [Pritelivir]	0.209	> 100 µM
CCCCCCCCCN1C[C@H](O)[C@@H](O)[C@H](O)[C@H]1CO [N-Nonyldeoxynojirimycin]	0.254	> 100 µM
O=C(/C=C/c1ccccc1)NC(NC(=S)Nc1cccc2cccnc12)C(Cl)(Cl)Cl (stereo unspecified) [Salubrinal]	0.377	> 100 µM
C[C@@]1(O)[C@H](O)[C@@H](CO)O[C@H]1n1cnc2c(N)ncnc21 [2'-C-Methyladenosine]	0.266	> 100 µM
Cl.OC[C@H]1NC[C@H](O)[C@@H](O)[C@@H]1O [Duvoglustat]	0.147	> 100 µM
Cc1cc(/C=C/C#N)cc(C)c1Nc1ccnc(Nc2ccc(C#N)cc2)n1 [Rilpivirine]	0.639	> 100 µM
O.Oc1cc(O)c2c(c1)O[C@H](c1ccc(O)c(O)c1)[C@@H](O)C2 (racemic) [(±)-Catechin]	0.804	> 100 µM
CC1(C)[C@@H]2CC[C@@]1(C)C(=O)C2 [(1R)-(+)-Camphor]	0.135	> 100 µM
O=C(O)[C@H]1O[C@@H](Oc2cc3oc(-c4ccc(O)cc4)cc(=O)c3c(O)c2O)[C@H](O)[C@@H](O)[C@@H]1O [Scutellarin]	0.476	> 100 µM
CC(C)(C)C#Cc1cc(N(C(=O)[C@H]2CC[C@H](C)CC2)[C@H]2CC[C@@H](O)CC2)c(C(=O)O)s1 [Lomibuvir]	0.414	> 100 µM
Cc1cn([C@@H]2C[C@@H](O)[C@H](CO)O2)c(=O)[nH]c1=O [Telbivudine]	0.153	> 100 µM
O=C(O)Cn1nnc(-c2cc(N3CCC(Oc4cc(F)ccc4Br)CC3)no2)n1 [MK-8245]	0.226	> 100 µM
COc1c(-c2ccc3cc(NS(C)(=O)=O)ccc3c2)cc(-n2ccc(=O)[nH]c2=O)cc1C(C)(C)C [Dasabuvir]	0.608	> 100 µM
O=C(NCc1c(F)cc(F)cc1F)c1cn2c(c(O)c1=O)C(=O)N1[C@H]3CC[C@H](C3)O[C@@H]1C2 [Bictegravir]	0.35	> 100 µM
COc1cnc(-n2cnc(C)n2)c2[nH]cc(C(=O)C(=O)N3CCN(C(=O)c4ccccc4)CC3)c12 [Temsavir]	0.146	> 100 µM
COc1cc2c(=O)c(-c3ccc(O)cc3)coc2cc1O[C@@H]1O[C@H](CO)[C@@H](O)[C@H](O)[C@H]1O [Glycitin]	0.158	> 100 µM
Cc1cc(C)c(Nc2ccnc(Nc3ccc(C#N)cc3)n2)c(C)c1 [Dapivirine]	0.836	> 100 µM
O=C(O)C[C@H](NC(=O)OCc1ccccc1)C(=O)COC(=O)c1c(Cl)cccc1Cl [Z-Asp-CH2-DCB]	0.212	> 100 µM
CC(C)[C@H](N)C(=O)OCC(CO)OCn1cnc2c(=O)nc(N)[nH]c21.Cl (stereo partly specified) [Valganciclovir]	0.247	> 100 µM
C=C[C@@H]1C2=CCOC(=O)C2=CO[C@H]1O[C@@H]1O[C@H](CO)[C@@H](O)[C@H](O)[C@H]1O [Gentiopicrin]	0.225	> 100 µM
CCOCc1nc2c(N)nc3ccccc3c2n1CC(C)(C)O [Resiquimod]	0.38	> 100 µM
